Test results as given in BigSolDB 2.1.

O=C(O)/C=C/c1ccccc1Cl
Settings | solubility (mole fraction)
in 2-butanone, 272.15 K | 0.00431
in 2-butanone, 278.45 K | 0.00535
in 2-butanone, 283.35 K | 0.00626
in 2-butanone, 288.35 K | 0.00733
in 2-butanone, 292.75 K | 0.00837
in 2-butanone, 297.75 K | 0.00968
in 2-butanone, 302.55 K | 0.0111
in 2-butanone, 307.05 K | 0.0126
in 2-butanone, 312.35 K | 0.0145
in 2-butanone, 317.05 K | 0.0164
in 2-butanone, 321.45 K | 0.0183
in 2-pentanone, 272.15 K | 0.00424
in 2-pentanone, 278.45 K | 0.00526
in 2-pentanone, 283.35 K | 0.00618
in 2-pentanone, 288.35 K | 0.00723
in 2-pentanone, 292.75 K | 0.00827
in 2-pentanone, 297.75 K | 0.0096
in 2-pentanone, 302.55 K | 0.011
in 2-pentanone, 307.05 K | 0.0125
in 2-pentanone, 312.35 K | 0.0144
in 2-pentanone, 317.05 K | 0.0163
in 2-pentanone, 321.45 K | 0.0182
in acetone, 272.15 K | 0.00376
in acetone, 278.45 K | 0.00474
in acetone, 283.35 K | 0.00563
in acetone, 288.35 K | 0.00668
in acetone, 292.75 K | 0.00771
in acetone, 297.75 K | 0.00907
in acetone, 302.55 K | 0.0105
in acetone, 307.05 K | 0.012
in acetone, 312.35 K | 0.014
in acetone, 317.05 K | 0.016
in acetone, 321.45 K | 0.0181
in acetonitrile, 272.15 K | 0.000253
in acetonitrile, 278.45 K | 0.000362
in acetonitrile, 283.35 K | 0.000474
in acetonitrile, 288.35 K | 0.000617
in acetonitrile, 292.75 K | 0.000773
in acetonitrile, 297.75 K | 0.000994
in acetonitrile, 302.55 K | 0.00125
in acetonitrile, 307.05 K | 0.00154
in acetonitrile, 312.35 K | 0.00195
in acetonitrile, 317.05 K | 0.0024
in acetonitrile, 321.45 K | 0.00289
in ethanol, 272.15 K | 0.00229
in ethanol, 278.45 K | 0.00295
in ethanol, 283.45 K | 0.0036
in ethanol, 288.35 K | 0.00431
in ethanol, 292.85 K | 0.00508
in ethanol, 298.15 K | 0.00614
in ethanol, 302.95 K | 0.00722
in ethanol, 307.35 K | 0.00833
in ethanol, 312.05 K | 0.00969
in ethanol, 316.55 K | 0.0112
in ethanol, 321.55 K | 0.013
in ethyl acetate, 272.15 K | 0.00231
in ethyl acetate, 278.45 K | 0.00294
in ethyl acetate, 283.35 K | 0.00351
in ethyl acetate, 288.35 K | 0.00417
in ethyl acetate, 292.75 K | 0.00484
in ethyl acetate, 297.75 K | 0.00571
in ethyl acetate, 302.55 K | 0.00665
in ethyl acetate, 307.05 K | 0.00764
in ethyl acetate, 312.35 K | 0.00894
in ethyl acetate, 317.05 K | 0.0102
in ethyl acetate, 321.45 K | 0.0116
in ethyl formate, 272.15 K | 0.000925
in ethyl formate, 278.45 K | 0.00124
in ethyl formate, 283.35 K | 0.00155
in ethyl formate, 288.35 K | 0.00193
in ethyl formate, 292.75 K | 0.00232
in ethyl formate, 297.75 K | 0.00285
in ethyl formate, 302.55 K | 0.00345
in ethyl formate, 307.05 K | 0.0041
in ethyl formate, 312.35 K | 0.00497
in ethyl formate, 317.05 K | 0.0059
in ethyl formate, 321.45 K | 0.00688
in isobutanol, 272.15 K | 0.0013
in isobutanol, 278.45 K | 0.00167
in isobutanol, 283.45 K | 0.00211
in isobutanol, 288.35 K | 0.00266
in isobutanol, 292.85 K | 0.00324
in isobutanol, 298.15 K | 0.00403
in isobutanol, 302.95 K | 0.00489
in isobutanol, 307.35 K | 0.00591
in isobutanol, 312.05 K | 0.00724
in isobutanol, 316.55 K | 0.00855
in isobutanol, 321.55 K | 0.0106
in isopentanol, 272.15 K | 0.00208
in isopentanol, 278.45 K | 0.00259
in isopentanol, 283.45 K | 0.00322
in isopentanol, 288.35 K | 0.00396
in isopentanol, 292.85 K | 0.00475
in isopentanol, 298.15 K | 0.0058
in isopentanol, 302.95 K | 0.00691
in isopentanol, 307.35 K | 0.00821
in isopentanol, 312.05 K | 0.00988
in isopentanol, 316.55 K | 0.0115
in isopentanol, 321.55 K | 0.014
in isopropanol, 272.15 K | 0.00181
in isopropanol, 278.45 K | 0.00245
in isopropanol, 283.45 K | 0.00309
in isopropanol, 288.35 K | 0.00385
in isopropanol, 292.85 K | 0.00468
in isopropanol, 298.15 K | 0.00585
in isopropanol, 302.95 K | 0.00712
in isopropanol, 307.35 K | 0.00848
in isopropanol, 312.05 K | 0.0101
in isopropanol, 316.55 K | 0.012
in isopropanol, 321.55 K | 0.0144
in methanol, 272.15 K | 0.00174
in methanol, 278.45 K | 0.00224
in methanol, 283.45 K | 0.00273
in methanol, 288.35 K | 0.00328
in methanol, 292.85 K | 0.00387
in methanol, 298.15 K | 0.00465
in methanol, 302.95 K | 0.00549
in methanol, 307.35 K | 0.0064
in methanol, 312.05 K | 0.00739
in methanol, 316.55 K | 0.00857
in methanol, 321.55 K | 0.01
in methyl acetate, 272.15 K | 0.00189
in methyl acetate, 278.45 K | 0.00244
in methyl acetate, 283.35 K | 0.00296
in methyl acetate, 288.35 K | 0.00358
in methyl acetate, 292.75 K | 0.00422
in methyl acetate, 297.75 K | 0.00505
in methyl acetate, 302.55 K | 0.00596
in methyl acetate, 307.05 K | 0.00694
in methyl acetate, 312.35 K | 0.00823
in methyl acetate, 317.05 K | 0.00956
in methyl acetate, 321.45 K | 0.0109
in n-butanol, 272.15 K | 0.00231
in n-butanol, 278.45 K | 0.00288
in n-butanol, 283.45 K | 0.00356
in n-butanol, 288.35 K | 0.00438
in n-butanol, 292.85 K | 0.00522
in n-butanol, 298.15 K | 0.00636
in n-butanol, 302.95 K | 0.00757
in n-butanol, 307.35 K | 0.00895
in n-butanol, 312.05 K | 0.0107
in n-butanol, 316.55 K | 0.0124
in n-butanol, 321.55 K | 0.0151
in n-pentanol, 272.15 K | 0.00268
in n-pentanol, 278.45 K | 0.0033
in n-pentanol, 283.45 K | 0.00404
in n-pentanol, 288.35 K | 0.00491
in n-pentanol, 292.85 K | 0.00583
in n-pentanol, 298.15 K | 0.00704
in n-pentanol, 302.95 K | 0.00832
in n-pentanol, 307.35 K | 0.00977
in n-pentanol, 312.05 K | 0.0116
in n-pentanol, 316.55 K | 0.0134
in n-pentanol, 321.55 K | 0.0162
in n-propanol, 272.15 K | 0.00202
in n-propanol, 278.45 K | 0.00267
in n-propanol, 283.45 K | 0.00332
in n-propanol, 288.35 K | 0.00408
in n-propanol, 292.85 K | 0.0049
in n-propanol, 298.15 K | 0.00602
in n-propanol, 302.95 K | 0.00723
in n-propanol, 307.35 K | 0.00848
in n-propanol, 312.05 K | 0.01
in n-propanol, 316.55 K | 0.0117
in n-propanol, 321.55 K | 0.0139
in toluene, 272.15 K | 0.000149
in toluene, 278.45 K | 0.000225
in toluene, 283.35 K | 0.000307
in toluene, 288.35 K | 0.000415
in toluene, 292.75 K | 0.000538
in toluene, 297.75 K | 0.000716
in toluene, 302.55 K | 0.000932
in toluene, 307.05 K | 0.00119
in toluene, 312.35 K | 0.00156
in toluene, 317.05 K | 0.00197
in toluene, 321.45 K | 0.00246
